Data: US7365088B2, “Indazole-derivatives as factor Xa inhibitors” (Sanofi-Aventis Deutschland GmbH, priority 2003, dated 2008)

biological target: human factor Xa (Homo sapiens, UniProt P00742); test: Factor Xa assay (chromogenic, substrate S-2765)
Sequence (P00742 235-488 limits assumed): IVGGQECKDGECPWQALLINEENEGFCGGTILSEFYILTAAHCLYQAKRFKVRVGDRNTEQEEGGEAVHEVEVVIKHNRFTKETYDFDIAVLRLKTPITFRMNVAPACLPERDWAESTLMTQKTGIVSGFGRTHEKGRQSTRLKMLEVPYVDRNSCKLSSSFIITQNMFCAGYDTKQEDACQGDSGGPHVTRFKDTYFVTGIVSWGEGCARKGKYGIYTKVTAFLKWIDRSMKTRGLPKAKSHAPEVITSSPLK
Sequence (P00742 41-179 partner limits assumed): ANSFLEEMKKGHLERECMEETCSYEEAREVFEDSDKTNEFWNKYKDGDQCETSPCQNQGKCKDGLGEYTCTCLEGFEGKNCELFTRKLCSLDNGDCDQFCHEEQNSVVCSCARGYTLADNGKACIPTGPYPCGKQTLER

Question: How did the Ki turn out when COC(=O)c1ccc2c(C(=O)NC3CCN(C(C)C)CC3)nn(Cc3cc(-c4ccc(Cl)s4)on3)c2c1 [Example 2, 1-[5-(5-Chloro-thiophen-2-yl)-isoxazol-3-ylmethyl]-3-(1-isopropyl-piperidin-4-ylcarbamoyl)-1H-indazole-6-carboxylic acid methyl ester] was run?
Answer: Its Ki is 35 nM.

Question: With CC(C)N1CCC(NC(=O)c2nn(Cc3cc(-c4ccc(Cl)s4)on3)c3ccc(C(=O)N(C)CC(=O)O)cc23)CC1 [Example 28, {[1-[5-(5-Chloro-thiophen-2-yl)-isoxazol-3-ylmethyl]-3-(1-isopropyl-piperidin-4-ylcarbamoyl)-1H-indazole-5-carbonyl]-methyl-amino}-acetic acid] as the molecule, how does the Ki read?
Answer: The Ki was 15 nM.

Question: For CS(=O)(=O)c1ccccc1-c1ccc(NC(=O)c2nn(Cc3cc(-c4ccc(Cl)s4)on3)c3ccccc23)cc1 [Example 41, 1-[5-(5-Chloro-thiophen-2-yl)-isoxazol-3-ylmethyl]-1H-indazole-3-carboxylic acid (2′-methanesulfonyl-biphenyl-4-yl)-amide], which Ki is on record?
Answer: Its Ki is 7 nM.

Question: With COCCOC(=O)c1ccc2c(c1)c(C(=O)NC1CCN(C(C)C)CC1)nn2Cc1cc(-c2ccc(Cl)s2)on1 [Example 56, 1-[5-(5-Chloro-thiophen-2-yl)-isoxazol-3-ylmethyl]-3-(1-isopropyl-piperidin-4-ylcarbamoyl)-1H-indazole-5-carboxylic acid 2-methoxy-ethyl ester] as the molecule, how does the Ki read?
Answer: Its Ki is 43 nM.

Question: For CC1CC(=O)NN=C1c1ccc(NC(=O)c2nn(Cc3cc(-c4ccc(Cl)s4)on3)c3ccccc23)cc1 (centres unmarked) [Example 43, 1-[5-(5-Chloro-thiophen-2-yl)-isoxazol-3-ylmethyl]-1H-indazole-3-carboxylic acid [4-(4-methyl-6-oxo-1,4,5,6-tetrahydro-pyridazin-3-yl)-phenyl]-amide], which Ki is on record?
Answer: Its Ki is 730 nM.

Question: With CC(C)N1CCC(NC(=O)c2nn(Cc3cc(-c4ccc(Cl)s4)on3)c3ccc(C(=O)NCCN4CCNC4=O)cc23)CC1 [Example 23, 1-[5-(5-Chloro-thiophen-2-yl)-isoxazol-3-ylmethyl]-1H-indazole-3,5-dicarboxylic acid 3-[(1-isopropyl-piperidin-4-yl)-amide]5-{[2-(2-oxo-imidazolidin-1-yl)-ethyl]-amide}] as the molecule, how does the Ki read?
Answer: Its Ki is 33 nM.

Question: With CC(C)N1CCC(NC(=O)c2nn(Cc3cc(-c4ccc(Cl)s4)on3)c3ccc(C(=O)NC(C)(CO)CO)cc23)CC1 [Example 24, 1-[5-(5-Chloro-thiophen-2-yl)-isoxazol-3-ylmethyl]-1H-indazole-3,5-dicarboxylic acid 5-[(2-hydroxy-1-hydroxymethyl-1-methyl-ethyl)-amide]3-[(1-isopropyl-piperidin-4-yl)-amide]] as the molecule, how does the Ki read?
Answer: Its Ki is 51 nM.

Question: How did the Ki turn out when CC(C)N1CCC(NC(=O)c2nn(Cc3cc(-c4ccc(Cl)s4)on3)c3ccc(C(=O)NCC(=O)O)cc23)CC1 [Example 25, {[1-[5-(5-Chloro-thiophen-2-yl)-isoxazol-3-ylmethyl]-3-(1-isopropyl-piperidin-4-ylcarbamoyl)-1H-indazole-5-carbonyl]-amino}-acetic acid] was run?
Answer: Its Ki is 14 nM.

Question: CC(C)N1CCC(NC(=O)c2nn(CC(=O)Nc3ccc(Cl)cn3)c3ccccc23)CC1 [Example 7] was tested. Which Ki did it give?
Answer: Its Ki is 86 nM.

Question: For CC(C)N1CCC(NC(=O)c2nn(Cc3cc(-c4ccc(Cl)s4)on3)c3ccc(C(=O)NC[Si](C)(C)C)cc23)CC1 [Example 16, 1-[5-(5-Chloro-thiophen-2-yl)-isoxazol-3-ylmethyl]-1H-indazole-3,5-dicarboxylic acid 3-[(1-isopropyl-piperidin-4-yl)-amide]5-trimethylsilanylmethyl-amide], which Ki is on record?
Answer: Its Ki is 54 nM.

Question: For CCOC(=O)CNC(=O)c1ccc2c(c1)c(C(=O)NC1CCN(C(C)C)CC1)nn2Cc1cc(-c2ccc(Cl)s2)on1 [Example 19, {[1-[5-(5-Chloro-thiophen-2-yl)-isoxazol-3-ylmethyl]-3-(1-isopropyl-piperidin-4-ylcarbamoyl)-1H-indazole-5-carbonyl]-amino}-acetic acid ethyl ester], which Ki is on record?
Answer: Its Ki is 26 nM.

Question: For CC(C)N1CCC(NC(=O)c2nn(Cc3cc(-c4ccc(Cl)s4)on3)c3ccc(C(=O)NCC(F)F)cc23)CC1 [Example 20, 1-[5-(5-Chloro-thiophen-2-yl)-isoxazol-3-ylmethyl]-1H-indazole-3,5-dicarboxylic acid 5-[(2,2-difluoro-ethyl)-amide]3-[(1-isopropyl-piperidin-4-yl)-amide]], which Ki is on record?
Answer: The Ki was 47 nM.

Question: O=C(Nc1ccc(C(=O)N2CCOCC2)cc1)c1nn(Cc2cc(-c3ccc(Cl)s3)on2)c2ccccc12 [Example 35, 1-[5-(5-Chloro-thiophen-2-yl)-isoxazol-3-ylmethyl]-1H-indazole-3-carboxylic acid [4-(morpholine-4-carbonyl)-phenyl]-amide] was tested. Which Ki did it give?
Answer: The Ki was 530 nM.

Question: CC(C)N1CCC(NC(=O)c2nn(Cc3cc(-c4ccc(Cl)s4)on3)c3ccc(C(=O)N4CC(C(=O)O)C4)cc23)CC1 [Example 52, 1-[1-[5-(5-Chloro-thiophen-2-yl)-isoxazol-3-ylmethyl]-3-(1-isopropyl-piperidin-4-ylcarbamoyl)-1H-indazole-5-carbonyl]-azetidine-3-carboxylic acid] was tested. Which Ki did it give?
Answer: Its Ki is 10 nM.

Question: For O=C(Nc1ccc(N2CCCC2=O)cc1)c1nn(Cc2cc(-c3ccc(Cl)s3)on2)c2ccccc12 [Example 39, 1-[5-(5-Chloro-thiophen-2-yl)-isoxazol-3-ylmethyl]-1H-indazole-3-carboxylic acid [4-(2-oxo-pyrrolidin-1-yl)-phenyl]-amide], which Ki is on record?
Answer: Its Ki is 19 nM.

Question: For CC(C)N1CCC(NC(=O)c2nn(Cc3cc(-c4ccc(Cl)s4)on3)c3ccccc23)CC1 [Example 8, 1-[5-(5-Chloro-thiophen-2-yl)-isoxazol-3-ylmethyl]-1H-indazole-3-carboxylic acid (1-isopropyl-piperidin-4-yl)-amide], which Ki is on record?
Answer: The Ki was 6 nM.

Question: Which Ki does the source give for CONC(=O)c1ccc2c(c1)c(C(=O)NC1CCN(C(C)C)CC1)nn2Cc1cc(-c2ccc(Cl)s2)on1 [Example 32, 1-[5-(5-Chloro-thiophen-2-yl)-isoxazol-3-ylmethyl]-1H-indazole-3,5-dicarboxylic acid 3-[(1-isopropyl-piperidin-4-yl)-amide]5-(methoxy-amide)] here?
Answer: The Ki was 22 nM.

Question: Which Ki does the source give for CC(C)N1CCC(NC(=O)c2nn(Cc3cc(-c4ccc(Cl)s4)on3)c3ccc(C(=O)NCCS(N)(=O)=O)cc23)CC1 [Example 14, 1-[5-(5-Chloro-thiophen-2-yl)-isoxazol-3-ylmethyl]-1H-indazole-3,5-dicarboxylic acid 3-[(1-isopropyl-piperidin-4-yl)-amide]5-[(2-sulfamoyl-ethyl)-amide]] here?
Answer: The Ki was 28 nM.

Question: With CC(C)N1CCC(NC(=O)c2nn(Cc3cc(-c4ccc(Cl)s4)on3)c3cccc(C#N)c23)CC1 [Example 10, 1-[5-(5-Chloro-thiophen-2-yl)-isoxazol-3-ylmethyl]-4-cyano-1H-indazole-3-carboxylic acid (1-isopropyl-piperidin-4-yl)-amide] as the molecule, how does the Ki read?
Answer: Its Ki is 9 nM.

Question: How did the Ki turn out when CC(C)N1CCC(NC(=O)c2nn(Cc3cc(-c4ccc(Cl)s4)on3)c3ccc(C(=O)N4CCCOCC4)cc23)CC1 [Example 30, 1-[5-(5-Chloro-thiophen-2-yl)-isoxazol-3-ylmethyl]-5-([1,4]oxazepane-4-carbonyl)-1H-indazole-3-carboxylic acid (1-isopropyl-piperidin-4-yl)-amide] was run?
Answer: Its Ki is 12 nM.

Question: How did the Ki turn out when CC(C)N1CCC(NC(=O)c2nn(Cc3cc(-c4ccc(Cl)s4)on3)c3ccc(C(=O)NCC(N)=O)cc23)CC1 [Example 21, 1-[5-(5-Chloro-thiophen-2-yl)-isoxazol-3-ylmethyl]-1H-indazole-3,5-dicarboxylic acid 5-carbamoylmethyl-amide 3-[(1-isopropyl-piperidin-4-yl)-amide]] was run?
Answer: The Ki was 33 nM.

Question: With COC(=O)c1ccc2c(c1)c(C(=O)NC1CCN(C(C)C)CC1)nn2Cc1cc(-c2ccc(Cl)s2)on1 [Example 1, 1-[5-(5-Chloro-thiophen-2-yl)-isoxazol-3-ylmethyl]-3-(1-isopropyl-piperidin-4-ylcarbamoyl)-1H-indazole-5-carboxylic acid methyl ester] as the molecule, how does the Ki read?
Answer: The Ki was 79 nM.

Question: For O=C(Cn1nc(C(=O)Nc2ccc(N3CCOCC3=O)cc2)c2ccccc21)Nc1ccc(Cl)cn1 [Example 53, 1-[(5-Chloro-pyridin-2-ylcarbamoyl)-methyl]-1H-indazole-3-carboxylic acid [4-(3-oxo-morpholin-4-yl)-phenyl]-amide], which Ki is on record?
Answer: Its Ki is 240 nM.

Question: For O=C(c1nn(Cc2cc(-c3ccc(Cl)s3)on2)c2ccccc12)N1CCC(N2CCCC2=O)CC1 [Example 37, 1-(1-{1-[5-(5-Chloro-thiophen-2-yl)-isoxazol-3-ylmethyl]-1H-indazole-3-carbonyl}-piperidin-4-yl)-pyrrolidin-2-one], which Ki is on record?
Answer: Its Ki is 210 nM.

Question: COC(=O)c1cccc2c(C(=O)NC3CCN(C(C)C)CC3)nn(Cc3cc(-c4ccc(Cl)s4)on3)c12 [Example 3, 1-[5-(5-Chloro-thiophen-2-yl)-isoxazol-3-ylmethyl]-3-(1-isopropyl-piperidin-4-ylcarbamoyl)-1H-indazole-7-carboxylic acid methyl ester] was tested. Which Ki did it give?
Answer: The Ki was 17 nM.

Question: How did the Ki turn out when O=C(Nc1ccc(C(=O)N2CCCC2)cc1)c1nn(Cc2cc(-c3ccc(Cl)s3)on2)c2ccccc12 [Example 34, 1-[5-(5-Chloro-thiophen-2-yl)-isoxazol-3-ylmethyl]-1H-indazole-3-carboxylic acid [4-(pyrrolidine-1-carbonyl)-phenyl]-amide] was run?
Answer: Its Ki is 120 nM.

Question: With CC(C)N1CCC(NC(=O)c2nn(Cc3cc(-c4ccc(Cl)s4)on3)c3ccc(C(=O)NCC(F)(F)F)cc23)CC1 [Example 27, 1-[5-(5-Chloro-thiophen-2-yl)-isoxazol-3-ylmethyl]-1H-indazole-3,5-dicarboxylic acid 3-[(1-isopropyl-piperidin-4-yl)-amide]5-[(2,2,2-trifluoro-ethyl)-amide]] as the molecule, how does the Ki read?
Answer: Its Ki is 39 nM.

Question: Which Ki does the source give for O=C(Nc1ccc(-n2ccc(=O)cc2)cc1)c1nn(Cc2cc(-c3ccc(Cl)s3)on2)c2ccccc12 [Example 54, 1-[5-(5-Chloro-thiophen-2-yl)-isoxazol-3-ylmethyl]-1H-indazole-3-carboxylic acid [4-(4-oxo-4H-pyridin-1-yl)-phenyl]-amide] here?
Answer: The Ki was 52 nM.

Question: With Cc1oc(=O)oc1COC(=O)c1ccc2c(c1)c(C(=O)NC1CCN(C(C)C)CC1)nn2Cc1cc(-c2ccc(Cl)s2)on1 [Example 50, 1-[5-(5-Chloro-thiophen-2-yl)-isoxazol-3-ylmethyl]-3-(1-isopropyl-piperidin-4-ylcarbamoyl)-1H-indazole-5-carboxylic acid 5-methyl-2-oxo-[1,3]dioxol-4-ylmethyl ester] as the molecule, how does the Ki read?
Answer: The Ki was 41 nM.
